Reference: US9661854B2, “Molecules having pesticidal utility, and intermediates, compositions, and processes, related thereto” (Dow AgroSciences LLC, priority 2015, dated 2017)

Key:
Assay type in all cases: in vivo
[1] = tested on: Beet Armyworm (Spodoptera exigua, LAPHEG); test: Bioassay on Beet Armyworm (BAW), 128-well diet tray assay; conditions: 168 h, 50 μg/cm^2 on artificial diet, second instar larvae, 25° C., five to seven days, average of eight wells, read-out: BAW % Control (or Mortality) rating
Method in brief: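 Second-instar larvae, one to five per well, fed artificial diet surface-treated with 50 μg/cm^2 test molecule in 90:10 acetone-water, dried before infestation; eight wells per molecule. Held at 25 °C, 14:10 light-dark for five to seven days; percent mortality averaged over wells.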

[2] = tested on: Yellow Fever Mosquito (Aedes aegypti, AEDSAE); conditions: about 1 day-old larvae, master plate 4000 ppm solution diluted, room temperature, scored after 3 days
Experimental: Example B: Bioassays on Yellow Fever Mosquito (Aedes aegypti, AEDSAE (“YFM”)
Certain molecules disclosed in this document were tested against YFM using procedures described in the following paragraph. In the reporting of the results, the “YFM Rating Table” was used (See Table Section).
Master plates containing 400 μg of a molecule dissolved in 100 μL of dimethyl sulfoxide (DMSO) (equivalent to a 4000 ppm solution) are used. A master plate of assembled molecules contains 15 μL per well. To this plate, 135 μL of a 90:10 water/acetone mixture is added to each well. A robot (Biomek® NXP Laboratory Automation Workstation) is programmed to dispense 15 μL aspirations from the master plate into an empty 96-well shallow plate (“daughter” plate). There are 6 reps (“daughter” plates) created per master. The created “daughter” plates are then immediately infested with YFM larvae.
The day before plates are to be treated, mosquito eggs are placed in Millipore water containing liver powder to begin hatching (4 g into 400 mL). After the “daughter” plates are created using the robot, they are infested with 220 μL of the liver powder/larval mosquito mixture (about 1 day-old larvae). After plates are infested with mosquito larvae, a non-evaporative lid is used to cover the plate to reduce drying. Plates are held at room temperature for 3 days prior to grading. After 3 days, each well is observed and scored based on mortality. The results are indicated in the table entitled “Table ABC: Biological Results” (See Table Section).

[3] = tested on: Cabbage Looper (Trichoplusia ni, TRIPNI); test: Bioassay on Cabbage Looper (CL), 128-well diet tray assay; conditions: 168 h, 50 μg/cm^2 on artificial diet, second instar larvae, 25° C., five to seven days, average of eight wells, read-out: CL % Control (or Mortality) rating
Method in brief: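 Second-instar larvae (one to five per well) placed on artificial diet treated with 50 μg/cm^2 test molecule in 90:10 acetone-water, dried; eight wells per molecule. Held at 25° C., 14:10 light-dark, for five to seven days. Percent mortality scored per well and averaged over the eight wells.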

CC(C)c1ccccc1N1C(=O)CS/C1=N\C(=O)Nc1ccc(CCc2ncn(-c3ccc(Br)cc3)n2)cc1 [F77, (Z)-1-(4-(2-(1-(4-Bromophenyl)-1H-1,2,4-triazol-3-yl)ethyl)phenyl)-3-(3-(2-isopropylphenyl)-4-oxothiazolidin-2-ylidene)urea]
mortality at 50 µg/cm2 [1]: 50 to 100% | YFM % Control (or Mortality) rating [2]: A (80-100) | mortality at 50 µg/cm2 [3]: 50 to 100%
